Assay results reported in patent publication US20200008426A1, “ACTIVE COMPOUND COMBINATIONS” (BAYER AKTIENGESELLSCHAFT, priority 2017, published 2020).

Assay: LogP by HPLC on reversed phase columns (EEC directive 79/831 Annex V.A8)
Conditions: Table 1, formula (I); LC-UV, acidic range, 0.1% formic acid in water and acetonitrile
Method: Measurement of LogP values was performed according to EEC directive 79/831 Annex V.A8 by HPLC (High Performance Liquid Chromatography) on reversed phase columns with the following methods:
Lambda-max-values were determined using UV-spectra from 200 nm to 400 nm and the peak values of the chromatographic signals.

Compound | LogP [a]
CC(O)(Cn1cncn1)c1cnc(Oc2ccc(Cl)cc2)cc1Cl (racemic) [I.08] | 2.50^[a]
CC(O)(Cn1cncn1)c1ccc(Oc2ccc(Cl)cc2)nc1Cl (racemic) [I.09] | 2.66^[a]
OC(Cn1cncn1)c1cnc(Oc2ccc(S(F)(F)(F)(F)F)cc2)cc1C(F)(F)F (racemic) [I.36] | 3.15^[a]
OC(Cn1cncn1)c1cnc(Oc2ccc(C(F)(F)F)cc2)cc1C(F)(F)F (racemic) [I.47] | 2.84^[a]
CC(O)(Cn1cncn1)c1ccc(Oc2ccc(OC(F)(F)F)cc2)nc1C(F)(F)F (racemic) [I.95] | 2.98^[a]
CC(O)(Cn1cncn1)c1ccc(Oc2ccc(Cl)cc2)nc1C(F)(F)F (racemic) [I.96] | 2.68^[a]
OC(Cn1cncn1)(c1ccc(Oc2ccc(S(F)(F)(F)(F)F)cc2)nc1C(F)(F)F)C1CC1 (racemic) [I.97] | 3.80^[a]
CCCCC(O)(Cn1cncn1)c1ccc(Oc2ccc(Cl)cc2)nc1C(F)(F)F (racemic) [I.98] | 3.87^[a]
CCCC(O)(Cn1cncn1)c1ccc(Oc2ccc(Cl)cc2)nc1C(F)(F)F (racemic) [I.100] | 3.55^[a]
CCC(O)(Cn1cncn1)c1ccc(Oc2ccc(Cl)cc2)nc1C(F)(F)F (racemic) [I.103] | 3.19^[a]
CC(O)(Cn1cncn1)c1cnc(Oc2ccc(Cl)cc2)cc1C(F)(F)F (single isomer, unassigned) [I.45] | 2.84^[a]
CC(O)(Cn1cncn1)c1cnc(Oc2ccc(Cl)cc2)cc1C(F)(F)F (single isomer, unassigned) [I.46] | 2.93^[a]
CC(O)(Cn1cncn1)c1ccc(Oc2ccc(Cl)cc2)nc1Cl (single isomer, unassigned) [I.51] | 2.62^[a]
CC(O)(Cn1cncn1)c1ccc(Oc2ccc(Cl)cc2)nc1Cl (single isomer, unassigned) [I.52] | 2.62^[a]
CC(O)(Cn1cncn1)c1cnc(Oc2ccc(Cl)cc2)cc1Cl (single isomer, unassigned) [I.53] | 2.53^[a]
CC(O)(Cn1cncn1)c1cnc(Oc2ccc(Cl)cc2)cc1Cl (single isomer, unassigned) [I.54] | 2.53^[a]
OC(Cn1cncn1)c1cnc(Oc2ccc(C(F)(F)F)cc2)cc1C(F)(F)F (single isomer, unassigned) [I.72] | 2.86^[a]
OC(Cn1cncn1)c1cnc(Oc2ccc(S(F)(F)(F)(F)F)cc2)cc1C(F)(F)F (single isomer, unassigned) [I.83] | 3.11^[a]
OC(Cn1cncn1)(c1ccc(Oc2ccc(Br)cc2)nc1C(F)(F)F)C1CC1 (single isomer, unassigned) [I.84] | 3.41 ^[a]
OC(Cn1cncn1)c1cnc(Oc2ccc(S(F)(F)(F)(F)F)cc2)cc1C(F)(F)F (single isomer, unassigned) [I.86] | 3.11^[a]
OC(Cn1cncn1)c1cnc(Oc2ccc(C(F)(F)F)cc2)cc1C(F)(F)F (single isomer, unassigned) [I.92] | 2.86^[a]

Compound | LogP [a]
OC(Cn1cncn1)(c1ccc(Oc2ccc(Br)cc2)nc1C(F)(F)F)C1CC1 (single isomer, unassigned) [I.99] | 3.41^[a]
CC(O)(Cn1cncn1)c1ccc(Oc2ccc(Br)cc2)nc1C(F)(F)F (single isomer, unassigned) [I.101] | 2.94^[a]
CC(O)(Cn1cncn1)c1ccc(Oc2ccc(Br)cc2)nc1C(F)(F)F (single isomer, unassigned) [I.102] | 2.94^[a]
CC(O)(Cn1cncn1)c1cnc(Oc2ccccc2)cc1Cl (centres unmarked) [I.05] | 2.10
CC(O)(Cn1cncn1)c1ncc(Oc2ccccc2)cc1Cl (centres unmarked) [I.06] | 2.47
CC(O)(Cn1cncn1)c1ccc(Oc2ccccc2)nc1Cl (centres unmarked) [I.07] | 2.14
OC(Cn1cncn1)c1ccc(Oc2ccc(Cl)c(Cl)c2)nc1Cl (centres unmarked) [I.10] | 2.80^[a]
OC(Cn1cncn1)c1ccc(Oc2ccc(OC(F)(F)F)c(Cl)c2)nc1Cl (centres unmarked) [I.11] | 3.11^[a]
OC(Cn1cncn1)c1ccc(Oc2ccc(OC(F)(F)F)cc2)nc1Cl (centres unmarked) [I.12] | 2.73^[a]
OC(Cn1cncn1)c1ccc(Oc2ccccc2)nc1Cl (centres unmarked) [I.13] | 1.98^[a]
OC(Cn1cncn1)c1ccc(Oc2ccc(Cl)cc2)nc1Cl (centres unmarked) [I.14] | 2.42^[a]
Cc1cc(Cl)ccc1Oc1ccc(C(O)Cn2cncn2)c(Cl)n1 (centres unmarked) [I.15] | 2.75^[a]
Cc1ccc(Oc2ccc(C(O)Cn3cncn3)c(Cl)n2)cc1Cl (centres unmarked) [I.16] | 2.73^[a]
OC(Cn1cncn1)c1ccc(Oc2ccc(F)cc2)nc1Cl (centres unmarked) [I.17] | 2.08^[a]
OC(Cn1cncn1)c1ccc(Oc2ccc(F)cc2F)nc1Cl (centres unmarked) [I.18] | 2.18^[a]
OC(Cn1cncn1)c1ccc(Oc2ccccc2F)nc1Cl (centres unmarked) [I.19] | 2.08^[a]
OC(Cn1cncn1)c1ccc(Oc2cc(F)c(F)c(F)c2)nc1Cl (centres unmarked) [I.20] | 1.65^[a]
OC(Cn1cncn1)c1cnc(Oc2ccccc2)cc1Cl (centres unmarked) [I.21] | 1.92^[a]
OC(Cn1cncn1)c1ncc(Oc2ccccc2)cc1Cl (centres unmarked) [I.22] | 2.01^[a]
OC(Cn1cncn1)c1ccc(Oc2ccc(Cl)cc2Cl)nc1Cl (centres unmarked) [I.23] | 2.75^[a]
CC(O)c1ccc(Oc2ccc(C(O)Cn3cncn3)c(Cl)n2)cc1 (centres unmarked) [I.24] | 1.48^[a]

Compound | LogP [a]
OC(Cn1cncn1)c1ccc(Oc2ccc(Cl)cc2)nc1C(F)F (centres unmarked) [I.25] | 2.44^[a]
OC(Cn1cncn1)c1ccc(Oc2ccc(Cl)cc2)nc1OC(F)(F)F (centres unmarked) [I.26] | 2.92^[a]
CC(O)(Cn1cncn1)c1ccc(Oc2ccc(F)cc2)nc1Cl (centres unmarked) [I.27] | 2.28^[a]
Cc1cc(Cl)ccc1Oc1ccc(C(C)(O)Cn2cncn2)c(Cl)n1 (centres unmarked) [I.28] | 2.94^[a]
Cc1ccc(Oc2ccc(C(C)(O)Cn3cncn3)c(Cl)n2)cc1Cl (centres unmarked) [I.29] | 3.00^[a]
COc1ccc(Oc2ccc(C(O)Cn3cncn3)c(Cl)n2)c(Cl)c1 (centres unmarked) [I.30] | 2.32^[a]
COc1ccc(Oc2ccc(C(C)(O)Cn3cncn3)c(Cl)n2)c(Cl)c1 (centres unmarked) [I.31] | 2.56^[a]
CC(O)(Cn1cncn1)c1ccc(Oc2ccc(Cl)c(Cl)c2)nc1Cl (centres unmarked) [I.32] | 3.09^[a]
CC(O)(Cn1cncn1)c1ccc(Oc2ccc(Cl)cc2)nc1OC(F)(F)F (centres unmarked) [I.33] | 3.29^[a]
OC(Cn1cncn1)c1ccc(Oc2ccc(S(F)(F)(F)(F)F)cc2)nc1Cl (centres unmarked) [I.34] | 2.90^[a]
CC(O)(Cn1cncn1)c1ccc(Oc2ccc(S(F)(F)(F)(F)F)cc2)nc1Cl (centres unmarked) [I.35] | 3.17^[a]
CC(O)(Cn1cncn1)c1cnc(Oc2ccc(S(F)(F)(F)(F)F)cc2)cc1C(F)(F)F (centres unmarked) [I.37] | 3.33^[a]
OC(Cn1cncn1)c1ccc(Oc2ccc(C(F)F)cc2)nc1Cl (centres unmarked) [I.38] | 2.17^[a]
CC(O)(Cn1cncn1)c1ccc(Oc2ccc(C(F)F)cc2)nc1Cl (centres unmarked) [I.39] | 2.41^[a]
OC(Cn1cncn1)c1ccc(Oc2ccc(Br)cc2)nc1C(F)(F)F (centres unmarked) [I.40] | 2.82^[a]
OC(Cn1cncn1)c1ccc(Oc2ccc(Cl)cc2)nc1F (centres unmarked) [I.41] | 2.23^[a]
CC(O)(Cn1cncn1)c1ccc(Oc2ccc(Cl)cc2)nc1F (centres unmarked) [I.42] | 2.46^[a]
OC(Cn1cncn1)c1cnc(Oc2ccc(OC(F)(F)F)cc2)cc1C(F)(F)F (centres unmarked) [I.43] | 3.00^[a]
CC(O)(Cn1cncn1)c1cnc(Oc2ccc(OC(F)(F)F)cc2)cc1C(F)(F)F (centres unmarked) [I.44] | 3.23^[a]
OC(Cn1cncn1)c1cnc(Oc2ccc(Br)cc2)cc1C(F)(F)F (centres unmarked) [I.48] | 2.75^[a]
CC(O)(Cn1cncn1)c1cnc(Oc2ccc(Br)cc2)cc1C(F)(F)F (centres unmarked) [I.49] | 2.96^[a]

Compound | LogP [a]
CC(O)(Cn1cncn1)c1cnc(Oc2ccc(C(F)(F)F)cc2)cc1C(F)(F)F (centres unmarked) [I.50] | 3.11^[a]
OC(Cn1cncn1)c1cnc(Oc2ccc(C(F)F)cc2)cc1C(F)(F)F (centres unmarked) [I.55] | 2.55^[a]
CC(O)(Cn1cncn1)c1cnc(Oc2ccc(C(F)F)cc2)cc1C(F)(F)F (centres unmarked) [I.56] | 2.73^[a]
OC(Cn1cncn1)c1cnc(Oc2ccc(Cl)cc2F)cc1C(F)(F)F (centres unmarked) [I.57] | 2.86^[a]
CC(O)(Cn1cncn1)c1cnc(Oc2ccc(Cl)cc2F)cc1C(F)(F)F (centres unmarked) [I.58] | 3.02^[a]
OC(Cn1cncn1)c1ccc(Oc2ccc(S(F)(F)(F)(F)F)cc2)nc1C(F)(F)F (centres unmarked) [I.60] | 3.08^[a]
OC(Cn1cncn1)c1ccc(Oc2ccc(C(F)(F)F)cc2)nc1C(F)(F)F (centres unmarked) [I.61] | 2.84^[a]
CC(O)(Cn1cncn1)c1ccc(Oc2ccc(S(F)(F)(F)(F)F)cc2)nc1C(F)(F)F (centres unmarked) [I.62] | 3.25^[a]
OC(Cn1cncn1)c1cnc(Oc2ccc(Br)cc2)cc1C(F)F (centres unmarked) [I.63] | 2.59^[a]
CC(O)(Cn1cncn1)c1cnc(Oc2ccc(Cl)cc2)cc1C(F)F (centres unmarked) [I.64] | 2.68^[a]
CC(O)(Cn1cncn1)c1ccc(Oc2ccc(C(F)(F)F)cc2)nc1C(F)(F)F (centres unmarked) [I.65] | 3.04^[a]
CC(O)(Cn1cncn1)c1ccc(Oc2ccc(Cl)cc2F)nc1C(F)(F)F (centres unmarked) [I.66] | 2.80^[a]
CC(O)(Cn1cncn1)c1ccc(Oc2ccc(Cl)cc2)nc1C(F)(F)F (centres unmarked) [I.67] | 2.68^[a]
OC(Cn1cncn1)c1cnc(Oc2ccc(Cl)cc2)cc1Cl (centres unmarked) [I.68] | 2.48^[a]
C=CC(O)(Cn1cncn1)c1cnc(Oc2ccc(C(F)(F)F)cc2)cc1C(F)(F)F (centres unmarked) [I.69] | 3.33^[a]
OC(Cn1cncn1)c1ccc(Oc2ccc(Cl)cc2F)nc1C(F)(F)F (centres unmarked) [I.70] | 2.78^[a]
OC(Cn1cncn1)(c1ccc(Oc2ccc(Cl)cc2)nc1C(F)(F)F)C1CC1 (centres unmarked) [I.71] | 3.35^[a]
OC(Cn1cncn1)c1ccc(Oc2ccc(Br)cc2)nc1C(F)F (centres unmarked) [I.73] | 2.50^[a]
OC(Cn1cncn1)c1ccc(Oc2ccc(C(F)F)cc2)nc1C(F)(F)F (centres unmarked) [I.74] | 2.49^[a]
CC(C)c1ccc(Oc2ccc(C(C)(O)Cn3cncn3)c(C(F)(F)F)n2)cc1 (centres unmarked) [I.75] | 3.35^[a]

Same assay, conditions: Table 1, formula (I); LC-UV, neutral range, 0.001 molar ammonium acetate in water and acetonitrile

LogP [b] | Compound
2.06 | CC(O)(Cn1cncn1)c1cnc(Oc2ccccc2)cc1Cl (centres unmarked) [I.05]
2.43 | CC(O)(Cn1cncn1)c1ncc(Oc2ccccc2)cc1Cl (centres unmarked) [I.06]
2.09 | CC(O)(Cn1cncn1)c1ccc(Oc2ccccc2)nc1Cl (centres unmarked) [I.07]
